{"source": "patent US20130217132A1", "about": "“METHODS, COMPOSITIONS AND USE FOR ENHANCING CHEMICAL TOLERANCE BY MICROORGANISMS” (priority 2009, published 2013)", "key": {"[1]": {"system": "pyruvate dehydrogenase (PDH) complex", "settings": "0.12 g/L furfural; cited from earlier work"}, "[2]": {"system": "BW25113 ArecA cells overexpressing lpcA gene (pLPCA)", "type": "cell-based, E. coli", "settings": "for OD600 (cell growth in the presence of furfural): furfural 1 g/L, lpcA overexpression, FIG. 19", "description": "FIGS. 17A-17B represent methods of identification of a gene related to restoring tolerance. Multiple genome-wide SCALE selection was performed in the presence of ethanol, furfural and acetate respectively. The data set obtained for each compound was compared to the others. Alleles enriched in all cases were identified. […] To restore tolerance, overexpression of identified genes in bacterial cells was performed. For example, lpcA ORF was cloned into the pBTL-1 vector. BW25113 ArecA cells transformed with the blank pBTL-1 vector were used as a control. BW25113 ArecA cells overexpressing lpcA gene were referred to as pLPCA. Cells were inoculated at a standard cell density into MOPS minimal media, supplemented with furfural, acetate or ethanol. After 24 hours, growth of the cells was analyzed.\nThe indicated cells were grown in MOPS minimal media supplemented with glucose as a carbon source. Furfural was added to the media at the concentration of 1 g/L. Arabinose was added at 10 mM where indicated to gauge effect of AraC binding. The BW25113 araC::FRT-kan clone corresponds to JW0063, a BW25113 araC knockout mutant ordered from the Keio Collection directly. pBTL-1 represented the blank vector, and pLPCA referred to lpcA gene overexpression. […] To analyze the LPS level in the cells indicated in FIG. 19, LPS are extracted from the cells grown to exponential phase. Loading of LPS for the protein gel is normalized to the cell number. The gel is stained to visualize LPS protein bands after desired separation is obtained.\nBW25113, MG1655, and derivatives were used where indicated. JW0063, an araC mutant of BW25113 was obtained from the Coli Genetic Stock Center (Yale). Overnight bacterial cultures were grown in Luria-Bertani medium with shaking. MOPS minimal medium (previously presented) with 0.2% glucose as a carbon source, was used for all seed cultures and growth studies. Seed cultures were inoculated at 2 v/v % from an overnight culture and were grown to mid-exponential phase. Growth cultures were inoculated with 10 v/v % seed cultures of an OD600 of 0.195-0.200 for an initial optical density of ˜0.02. Carbenicillin and kanamycin were used where appropriate at 100 μg/ml and 30 μg/ml, respectively. The pBTL-1 vector (previously described) was used as the control blank vector for all growth studies. Genome-wide furfural selection"}, "[3]": {"system": "aldehyde dehydrogenase (A1DH; EC 1.2.1.5)", "settings": "0.12 g/L furfural; cited from earlier work"}, "[4]": {"system": "pBTL-1 Control (blank vector) culture", "assay": "Aerobic growth (specific growth, final OD600) in MOPS minimal media with inhibitor, control", "type": "cell-based, E. coli", "settings": "aerobic growth in 1 g/L furfural", "description": "Certain experiments described herein were performed in E. coli BW25113 recA-, with the kanamycin resistance gene removed.\nCultures were grown in 10 ml MOPS minimal media, 100 μg carbenicillin/ml, and either 1 g furfural/1 supplemented, 2 g HMF/1, or 4 g acetate/1, in 15 ml conical tubes at 37° C. The optical density of 1 ml culture was measured with a spectrophotometer at 600 nm. A natural log transformation of the data was then calculated and then a regression line was fit to the data to calculate specific growth, which is […] to the culture doubling time. The blank vector, pBTL-1, served as the control. The lpcA gene was cloned into the pBTL-1 using standard cloning techniques and primers designed to amplify the gene from template DNA."}, "BW25113 ArecA pLPCA": {"system": "BW25113 ArecA pLPCA", "assay": "MIC assay of furfural, lpcA overexpression strain", "type": "cell-based, E. coli", "settings": "Escherichia coli", "description": "(§1) In one exemplary method, assays were performed to determine minimum inhibitory concentration (MIC) of ethanol, furfural and acetate for BW25113 and MG1655 E. coli strains. […] Cells from each strain were inoculated from the same optical density into a total of 100 μL of varying furfural concentrations in a minimal media, for example using MOPS. Cell growth in the first 24 hr or 48 hr in the presence of furfural was monitored. The left bar in each pair for each indicated strain represents a first concentration of furfural that inhibited bacterial growth after 24 hr. The right bar for each strain represents the first concentration that inhibited growth after 48 hr. The MIC reads were the average of triplicates (n=3), and error bars represent standard deviation. […] ArecA signifies strains where the gene has been knocked out as previously described.\n(§2) The minimum inhibitory concentration (MIC) of furfural of MG1655 and BW25113 with or without lpcA overexpression was determined. MIC assays were performed as described in Example 13. […] MIC reads were average of triplicates (n=3), and error bars represent standard deviation. The SDS-PAGE gel image in FIG. 17C represents LPS level of the cells indicated above the gel image (duplicate of each cell sample was presented). LPS was extracted from the indicated cells grown to exponential phase. Loading of LPS the SDS-PAGE gel was normalized to the cell number. The gel was stained for visualization after desired separation of LPS was obtained.\n(§3) In another exemplary method, MIC was determined when MG1655 and BW25113 strains were fed with various carbon sources. MIC assays were performed in the presence of furfural. Glucose, Xylose or Ribose was supplemented with a minimal media for cell growth. […] MICs were read at the indicated time (24 hr or 48 hr), the average of triplicates was presented and error bars represent standard deviation. ‘Blank vector’ refers to the pBTL-1 vector, which served as the control. […]"}, "ADH": {"system": "ADH", "settings": "0.12 g/L furfural; cited from earlier work"}, "[5]": {"system": "BW25113 ArecA transformed with the blank vector (pBTL-1)", "assay": "MIC assay of furfural, blank vector strain", "type": "cell-based, E. coli", "settings": "for MIC of furfural: blank vector, FIG. 18B", "description": "as §1, §2, §3"}}, "note": "Read-outs that look alike come from different tables or passages of the source."}
{"molecule": "O=Cc1ccco1", "note": "[furfural, furan-2-carbaldehyde]", "values": [{"measurement": "activity reduction", "setting": "[1]", "value": "more than 80%"}, {"measurement": "OD600 (cell growth in the presence of furfural)", "setting": "[2]; Arabinose 10 mM", "value": 0.3}, {"measurement": "OD600 (cell growth in the presence of furfural)", "setting": "[2]; no Arabinose", "value": 0.1}, {"measurement": "improvement of final optical density by pLPCA in BW25113", "setting": "[2]; furfural 1 g/l", "value": "252±8", "unit": "%"}, {"measurement": "OD600 at 24 hr", "setting": "[2]; pLPCA cells, 1 g/L of furfural", "value": "about 1.2"}, {"measurement": "activity reduction", "setting": "[3]", "value": "more than 80%"}, {"measurement": "Final OD600 (24 hr)", "setting": "[4]", "value": 0.586}, {"measurement": "Specific Growth", "setting": "[4]; n=3", "value": 0.111, "unit": "h⁻¹"}, {"measurement": "MIC", "setting": "BW25113 ArecA pLPCA; BW25113, read-out: MIC of furfural, BW25113 ArecA pLPCA, FIG. 17C", "value": 1250, "unit": "µg/mL"}, {"measurement": "MIC", "setting": "BW25113 ArecA pLPCA; BW25113, read-out: MIC of furfural, pLPCA, glucose as carbon source, FIG. 18B", "value": 1250, "unit": "µg/mL"}, {"measurement": "MIC", "setting": "BW25113 ArecA pLPCA; BW25113, read-out: MIC of furfural, pLPCA, xylose as carbon source, FIG. 18B", "value": 1000, "unit": "µg/mL"}, {"measurement": "activity inhibited", "setting": "ADH", "value": 60, "unit": "%"}, {"measurement": "MIC", "setting": "[5]; Escherichia coli, BW25113, read-out: MIC of furfural", "value": 500, "unit": "µg/mL"}, {"measurement": "MIC of furfural", "setting": "[5]; glucose as carbon source", "value": 500, "unit": "µg/mL"}, {"measurement": "MIC of furfural", "setting": "[5]; xylose as carbon source", "value": 500, "unit": "µg/mL"}]}
